These results are taken from US9834564B2, “Substituted quinolines as PDE-10 inhibitors” (priority 2010, dated 2017).

Sequence of recombinant human PDE-10 enzyme (PDE-10A) (Q9Y233 whole entry): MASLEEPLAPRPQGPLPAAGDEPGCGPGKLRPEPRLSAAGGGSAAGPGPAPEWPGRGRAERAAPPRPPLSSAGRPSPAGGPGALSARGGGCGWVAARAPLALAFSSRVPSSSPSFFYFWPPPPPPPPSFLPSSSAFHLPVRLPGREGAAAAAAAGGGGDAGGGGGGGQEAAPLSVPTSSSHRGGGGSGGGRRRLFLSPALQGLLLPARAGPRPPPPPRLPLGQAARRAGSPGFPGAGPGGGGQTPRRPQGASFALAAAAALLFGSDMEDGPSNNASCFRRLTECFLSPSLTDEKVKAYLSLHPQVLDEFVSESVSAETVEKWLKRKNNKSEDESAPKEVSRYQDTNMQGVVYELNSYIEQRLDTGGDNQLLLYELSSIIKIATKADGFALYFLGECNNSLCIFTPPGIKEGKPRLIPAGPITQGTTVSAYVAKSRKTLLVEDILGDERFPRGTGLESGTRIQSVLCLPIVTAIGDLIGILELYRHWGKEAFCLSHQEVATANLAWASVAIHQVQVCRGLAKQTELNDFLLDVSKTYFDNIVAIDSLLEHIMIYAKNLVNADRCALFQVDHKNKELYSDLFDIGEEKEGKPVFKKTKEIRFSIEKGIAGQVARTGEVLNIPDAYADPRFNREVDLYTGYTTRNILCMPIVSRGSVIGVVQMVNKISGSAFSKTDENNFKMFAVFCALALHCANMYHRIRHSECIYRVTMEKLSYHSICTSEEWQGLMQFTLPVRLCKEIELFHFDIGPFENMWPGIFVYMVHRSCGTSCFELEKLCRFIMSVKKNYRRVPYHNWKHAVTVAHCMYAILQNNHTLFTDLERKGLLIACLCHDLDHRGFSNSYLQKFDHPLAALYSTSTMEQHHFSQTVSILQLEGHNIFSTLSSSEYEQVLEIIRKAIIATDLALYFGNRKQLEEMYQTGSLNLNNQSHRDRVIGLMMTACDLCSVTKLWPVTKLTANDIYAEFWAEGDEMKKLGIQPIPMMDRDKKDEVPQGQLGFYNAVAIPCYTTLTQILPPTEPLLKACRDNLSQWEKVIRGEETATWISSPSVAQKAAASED

One assay concerns the target recombinant human PDE-10 enzyme (PDE-10A) (Homo sapiens (Human), UniProt Q9Y233). The assay can be described thus: IMAP PDE Fluorescence Polarization assay, human PDE-10 inhibition (enzyme assay).
Settings: not given
It is filed as biochemical. The method, then: In one embodiment, the compounds provided herein were assayed for their ability to inhibit human PDE-10A. In one embodiment, the activities of the compounds were determined using the Molecular Devices IMAP PDE Fluorescence Polarization assay using recombinant human PDE-10 enzyme expressed in a baculoviral system. Briefly, 10 μL of a compound (0.2 nM-20 μM) was added to either a 96-well half area black plate or a 384-well black plate along with 10 μL of Fluorescein-labeled cAMP/cGMP substrate as per manufacturer's instructions and 10 μL of PDE enzyme (activity 0.1 U). Following a 40-minute incubation at 37° C., 60 μL of IMAP binding reagent was added. […] The data was analyzed using Prism Software (GraphPad Inc, San Diego, Calif.).
A general note: In fluorescence polarisation assays a small probe gives low polarisation when free and higher when bound to something large.
As usually defined, the IC50 is the concentration at which inhibition is half-maximal. Consider `Cn1c(/C=C/c2nc(-c3ccccc3)c[nH]2)nc2ccccc2c1=O` [Compound 9], for which the 50% inhibitory concentration (IC50) is more than 10 µM.

The assay is the same for the next values; noted with them: recombinant human PDE-10, fluorescein-labeled cAMP/cGMP substrate, 40 min at 37° C.
As for `C(=C\c1cccs1)/c1nc(-c2ccccc2)c[nH]1` [Compound 28], the IC50 was more than 10 µM.
On the same count and under the same terms, with `c1ccc2nc(CCc3cn4ccc5ncccc5c4n3)cnc2c1` [Compound 189] the figure was less than 0.5 µM.
Still for that read-out and setting: with `Cn1cc(-c2ccccc2)nc1CCc1cccc(C(N)=O)n1` [Compound 151] the figure was more than 10 µM; with `Cc1ccnc2ccc(CCc3nc4c5cccnc5ccc4n3C)nc12` [Compound 186], less than 0.5 µM.
Consider `Cn1cc(-c2cccc(F)c2F)nc1CCc1ccc2ccccc2n1` [Compound 44], for which the IC50 was in the range of 0.5 to 1 µM.
On the same count and under the same terms, with `c1ccc(-c2cccc(CCc3cnc4ccccc4n3)n2)cc1` [Compound 81] the figure was more than 10 µM.
Same read-out and setting: with `c1ccc2nc(CCc3nc(-c4ccncc4)c[nH]3)ccc2c1` [Compound 68] the figure was 1 to 10 µM.
On the same count and under the same terms, with `Oc1cccc2nc(CCc3cnc4ccccc4n3)[nH]c12` [Compound 99] the figure was 0.5 to 1 µM.
For the compound `Cc1ccc2nc(CCc3nc4c(C)ncc(C)n4n3)cnc2c1C` [Compound 136], the concentration for half-maximal inhibition (IC50) is less than 0.5 µM.
Regarding `Cc1cc2c(nc(CCc3ccc4ccccc4n3)n2C)c2cccnc12` [Compound 169], the concentration for half-maximal inhibition (IC50) is more than 10 µM.
Take `Cc1ccc(C)c2nc(CCc3nc4c5cccnc5ccc4n3C)cnc12` [Compound 88]: the half-inhibitory concentration (IC50) is less than 0.5 µM.
Same read-out and setting: with `O=c1[nH]c(CCc2nc(-c3cc4ccccc4o3)c[nH]2)nc2ccccc12` [Compound 53] the figure was 1 to 10 µM; with `Cn1c(CCc2ccc3ccccc3n2)nc2c3cccnc3ccc21` [Compound 85], less than 0.5 µM; with `Cc1cc2ncccc2c2nc(CCc3ccc4ccccc4n3)n(C)c12` [Compound 170], less than 0.5 µM.
On to `O=c1[nH]c(CCc2nc3ccccc3s2)nc2ccccc12` [Compound 112], for which the IC50 was more than 10 µM.
Take `c1ccc(-c2c[nH]c(CCc3ncc4ccccc4n3)n2)cc1` [Compound 13]: the concentration for half-maximal inhibition (IC50) is less than 0.5 µM.
The same measure, in the same setting: as for `c1ccc2nc(CCc3nc4c5cccnc5ccn4n3)cnc2c1` [Compound 188], the figure is less than 0.5 µM; as for `Cn1cc(-c2ccncc2)nc1CCc1cnc2ccccc2n1` [Compound 47], more than 10 µM; as for `Cc1cnc(C)n2nc(CCc3ccc4ccccc4n3)nc12` [Compound 126, 2-(2-(5,8-Dimethyl-[1,2,4]triazolo[1,5-c]pyrimidin-2-yl)ethyl)quinoline], less than 0.5 µM.
The same measure, in the same setting: with `Cn1c(CCc2ccc3ccc4cccnc4c3n2)nc2c3cccnc3ccc21` [Compound 171] the figure was less than 0.5 µM; with `Cc1c(CCc2cnc3ccccc3n2)nc2c3cccnc3ccn12` [Compound 190], less than 0.5 µM; with `Cc1ccc2ncc(CCc3nc4c(C)ncc(C)n4n3)nc2c1C` [Compound 135], less than 0.5 µM.
The same measure, in the same setting: with `O=c1[nH]c(/C=C/c2ccc(-c3ccccc3)s2)nc2ccccc12` [Compound 38] the figure was more than 10 µM; with `O=c1[nH]c(CCn2cnc(-c3ccccc3)c2)nc2ccccc12` [Compound 27], 1 to 10 µM.
Consider `c1cnc2ccc(CCc3nc4c5cccnc5ccn4n3)nc2c1` [Compound 176], for which the IC50 was less than 0.5 µM.
Regarding `c1ccc2nc(CCc3nc(-c4ccncc4)c[nH]3)cnc2c1` [Compound 74], the IC50 lay within 1 to 10 µM.
Same read-out and setting: as for `O=c1[nH]c(CCc2ccc(-c3ccccc3)s2)nc2ccccc12` [Compound 37], the figure is more than 10 µM; as for `Cn1cc(-c2ccncc2)nc1CCc1ccc2ccccc2n1` [Compound 41], 1 to 10 µM.
In the case of `Cc1ccc(C)c2nc(CCc3nc4ccc5ncccc5c4n3C)cnc12` [Compound 89], the IC50 was less than 0.5 µM.
In the case of `Cn1c(CCc2ccc3ccccc3n2)nc2ccccc21` [Compound 25], the half-maximal inhibitory concentration (IC50) was in the range of 1 to 10 µM.
As for `Cn1cc(-c2ccccc2)nc1CCc1ncc2ccccc2n1` [Compound 18], the IC50 was less than 0.5 µM.
For `Fc1cccc(-c2c[nH]c(CCc3ccc4ccccc4n3)n2)c1F` [Compound 71], the IC50 is 0.5 to 1 µM.
Turning to `Cn1c(CCc2cnc3ccccc3n2)nc2c3cccnc3ccc21` [Compound 84], the half-maximal inhibitory concentration (IC50) is less than 0.5 µM.
For the compound `Cc1ncc(C)n2nc(CCc3ccc4c(F)ccc(F)c4n3)nc12` [Compound 129], the IC50 lay within 0.5 to 1 µM.
On the same count and under the same terms, with `Fc1cnc2nc(CCc3nc4c5cccnc5ccn4n3)ccc2c1` [Compound 181] the figure was less than 0.5 µM; with `O=c1[nH]c(CCc2cc(-c3ccccc3)n[nH]2)nc2ccccc12` [Compound 14], 1 to 10 µM; with `c1cncc(-c2c[nH]c(CCc3cnc4ccccc4n3)n2)c1` [Compound 78], less than 0.5 µM.
The same measure, in the same setting: as for `C(=C\c1nc(-c2ccccc2)c[nH]1)/c1ccccn1` [Compound 32], the figure is more than 10 µM; as for `Cc1c(CCc2ccc3cc(F)cnc3n2)nc2c3cccnc3ccn12` [Compound 183], less than 0.5 µM.
Still for that read-out and setting: with `Fc1cc2[nH]c(CCc3cnc4ccccc4n3)nc2cc1Cl` [Compound 101] the figure was 0.5 to 1 µM.
As to `Cc1c(CCc2ccc3cc(C(F)(F)F)cnc3n2)nc2c3cccnc3ccn12` [Compound 185], the IC50 was 0.5 to 1 µM.
As for `c1ccc2nc(CCc3nc4ccccc4s3)cnc2c1` [Compound 117], the 50% inhibitory concentration (IC50) was 1 to 10 µM.
For `O=c1[nH]c(CCc2nc(-c3ccc(Cl)cc3)c[nH]2)nc2ccccc12` [Compound 54], the concentration for half-maximal inhibition (IC50) fell in the range of 1 to 10 µM.
On to `c1ccc2nc(CCc3nc4cc5c(cc4[nH]3)OCO5)cnc2c1` [Compound 98], for which the concentration for half-maximal inhibition (IC50) is 1 to 10 µM.
Still for that read-out and setting: with `Cc1ncc(C)c2nc(CCc3nc4c5cccnc5ccc4n3C)ccc12` [Compound 165] the figure was less than 0.5 µM; with `c1ccc2nc(CCc3cn4ccccc4n3)cnc2c1` [Compound 119], 1 to 10 µM.
Take `Cn1c(CCc2ccc3ccccc3n2)nc2c3ccccc3ccc21` [Compound 90]: the IC50 is less than 0.5 µM.
As to `Cc1ccc2nc(CCc3cn4ccc5ncccc5c4n3)ccc2n1` [Compound 200], the IC50 is less than 0.5 µM.
On the same count and under the same terms, as for `O=c1[nH]c(CCc2nc(-c3ccccc3)c[nH]2)nc2cc3ccccc3cc12` [Compound 6], the figure is more than 10 µM; as for `Cc1ncc(C)c2nc(CCc3nc4c(ccc5ncccc54)[nH]3)ccc12` [Compound 166], less than 0.5 µM.
The same measure, in the same setting: with `Cc1ncc(C)n2nc(CCc3ccc4ccc5ccccc5c4n3)nc12` [Compound 130] the figure was 0.5 to 1 µM.
Still for that read-out and setting: with `Cc1ncc(C)n2nc(CCc3ccc4ccc5nccnc5c4n3)nc12` [Compound 141] the figure was less than 0.5 µM; with `O=c1[nH]c(CCc2nc(-c3ccccc3)c(-c3ccccc3)o2)nc2ccccc12` [Compound 111], 1 to 10 µM.
For `O=c1[nH]c(CCc2nc(-c3ccc(-c4ccccc4)cc3)c[nH]2)nc2ccccc12` [Compound 63], the concentration for half-maximal inhibition (IC50) was more than 10 µM.
As to `Cc1ncc(C)c2nc(CCc3nc4c5ncccc5ccc4n3C)ccc12` [Compound 164], the IC50 is less than 0.5 µM.
Take `c1cnc2c(c1)ccn1nc(CCc3cnc4ccccc4n3)nc21` [Compound 157]: the IC50 is less than 0.5 µM.
The same measure, in the same setting: with `O=c1[nH]c(CCc2nc(-c3ccccc3C(F)(F)F)c[nH]2)nc2ccccc12` [Compound 62] the figure was 1 to 10 µM; with `Cn1c(CCc2cnc3ccccc3n2)nc2c3ncccc3ccc21` [Compound 154], less than 0.5 µM; with `FC(F)(F)c1ccc2[nH]c(CCc3cnc4ccccc4n3)nc2c1` [Compound 104], 1 to 10 µM.
